Patent publication US9938262B2, “Benzamides” (Merck Patent GmbH, priority 2011, dated 2018)
pEC50: −log10 of the molar value.

Molecular target: T1, FSHR (Homo sapiens, UniProt P23945)
T1 construct: expressed in transfected cells; host or cells: CHO (Cho-FSHR-LUC-1-1-43)
Experiment: EC50 of cyclic AMP production in CHO FSHR cells + EC20 FSH (Assay A)
Assay type: cell-based
Details: Table 2; for pEC50: CHO FSHR cells + EC20 FSH, read-out: Assay A EC50 of cyclic AMP production; for activation at 5 µM: 1 h, effect relative to maximum response of the FSH standard
How it was run: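 cAMP HTRF ratio (665/620 nm) read after 1 h, 37 °C exposure of CHO-FSHR cells to compound in presence of EC20 FSH ([…]) and IBMX 200 μM. Responses given relative to FSH standard maximum; EC50 derived.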

T1 sequence (P23945 18-695): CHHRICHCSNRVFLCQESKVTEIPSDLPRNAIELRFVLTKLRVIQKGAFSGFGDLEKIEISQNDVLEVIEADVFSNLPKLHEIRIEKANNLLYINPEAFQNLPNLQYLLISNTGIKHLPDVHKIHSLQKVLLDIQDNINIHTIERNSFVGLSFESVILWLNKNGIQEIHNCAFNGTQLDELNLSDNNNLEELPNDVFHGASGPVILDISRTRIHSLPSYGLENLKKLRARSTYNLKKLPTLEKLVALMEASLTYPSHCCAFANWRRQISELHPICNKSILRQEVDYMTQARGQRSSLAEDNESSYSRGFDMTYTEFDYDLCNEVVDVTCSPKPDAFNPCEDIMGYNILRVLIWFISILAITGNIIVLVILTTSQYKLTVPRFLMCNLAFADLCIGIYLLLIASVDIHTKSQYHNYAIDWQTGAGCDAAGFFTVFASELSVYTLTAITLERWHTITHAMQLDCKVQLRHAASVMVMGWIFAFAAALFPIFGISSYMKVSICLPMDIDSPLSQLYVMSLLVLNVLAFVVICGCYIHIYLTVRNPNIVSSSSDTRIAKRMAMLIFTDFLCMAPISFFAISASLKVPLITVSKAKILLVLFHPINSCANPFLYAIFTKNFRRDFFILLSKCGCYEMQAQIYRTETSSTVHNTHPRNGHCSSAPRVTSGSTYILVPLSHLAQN
T1 sequence (P01215 25-116 partner): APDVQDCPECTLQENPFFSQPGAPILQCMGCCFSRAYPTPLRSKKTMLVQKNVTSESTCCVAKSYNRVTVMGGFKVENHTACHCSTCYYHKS
T1 sequence (P01225 19-129 partner): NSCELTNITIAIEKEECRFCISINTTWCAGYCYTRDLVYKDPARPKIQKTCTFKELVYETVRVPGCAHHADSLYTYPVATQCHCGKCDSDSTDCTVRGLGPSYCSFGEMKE

Row | SMILES | pEC50 | activation at 5 µM [%]
1 | CCN(C)Cc1cccc(CNC(=O)c2ccc(N3CCN(c4ccccc4C)CC3)c(NC(=O)c3ccco3)c2)c1 [Compound 478] | > 7.00 | –
2 | Cc1ccccc1N1CCN(c2ccc(C(=O)Nc3cccc(N4CCCC4=O)c3)cc2NC(=O)c2coc(C3CC3)n2)CC1 [Compound 481] | 6.00 to 7.00 | –
3 | COCc1cccc(CNC(=O)c2ccc(N3CCN(c4ccccc4C)CC3)c(NC(=O)c3ccco3)c2)c1 [Compound 484] | 6.00 to 7.00 | –
4 | Cc1ccccc1N1CCN(c2ccc(C(=O)NCc3cccc(C(=O)N(C)C)c3)cc2NC(=O)c2ccco2)CC1 [Compound 485] | 6.00 to 7.00 | –
5 | Cc1ccccc1N1CCN(c2ccc(C(=O)NC(C)(C)c3cccc(CN(C)C)c3)cc2NC(=O)c2coc(C3CC3)n2)CC1 [Compound 486] | 5.00 to 6.00 | –
6 | Cc1ccccc1N1CCN(c2ccc(C(=O)NCCc3ccc(CNC(=O)OC(C)(C)C)cc3)cc2NC(=O)c2coc(C3CC3)n2)CC1 [Compound 489] | 5.00 to 6.00 | –
7 | CCCNC(=O)NCCCNC(=O)c1ccc(N2CCN(c3ccccc3C)CC2)c(NC(=O)c2ccco2)c1 [Compound 490] | > 7.00 | –
8 | CCCCNC(=O)NCCCNC(=O)c1ccc(N2CCN(c3ccccc3C)CC2)c(NC(=O)c2ccco2)c1 [Compound 491] | 6.00 to 7.00 | –
9 | CCNC(=O)NCCCNC(=O)c1ccc(N2CCN(c3ccccc3C)CC2)c(NC(=O)c2ccco2)c1 [Compound 492] | 6.00 to 7.00 | –
10 | Cc1ccccc1N1CCN(c2ccc(C(=O)NCCCNC(=O)NC3CCCC3)cc2NC(=O)c2ccco2)CC1 [Compound 494] | 6.00 to 7.00 | –
11 | Cc1ccccc1N1CCN(c2ccc(C(=O)NCC(O)CN3CCCC3)cc2NC(=O)c2ccco2)CC1 (centres unmarked) [Compound 501] | 6.00 to 7.00 | –
12 | Cc1ccccc1N1CCN(c2ccc(C(=O)NCCN(C)C3CCCC3)cc2NC(=O)c2ccco2)CC1 [Compound 502] | 6.00 to 7.00 | –
13 | O=C(NCCCN1CCCC1=O)c1ccc(N2CCN(c3nccs3)CC2)c(NC(=O)c2coc(C3CC3)n2)c1 [Compound 505] | 5.00 to 6.00 | –
14 | COc1cccc(N2CCN(c3ccc(C(=O)NCCCN4CCCC4=O)cc3NC(=O)c3coc(C4CC4)n3)CC2)n1 [Compound 507] | 6.00 to 7.00 | –
15 | Cn1ccnc1N1CCN(c2ccc(C(=O)NCCCN3CCOC3=O)cc2NC(=O)c2coc(C3CC3)n2)CC1 [Compound 513] | 5.00 to 6.00 | –
16 | Cc1ccc(C(=O)Nc2cc(C(=O)NCCCN3CCOC3=O)ccc2N2CCN(c3nccn3C)CC2)o1 [Compound 514] | – | 48
17 | CCc1ccccc1N1CCN(c2ccc(C(=O)NCCCN3CCCC3=O)cc2NC(=O)c2coc(C3CC3)n2)CC1 [Compound 516] | 6.00 to 7.00 | –
18 | CCc1ccccc1N1CCN(c2ccc(C(=O)NCCCN3CCCC3=O)cc2NC(=O)c2ccc(C)o2)CC1 [Compound 517] | 6.00 to 7.00 | –
19 | Cc1ccc(C)c(N2CCN(c3ccc(C(=O)NCCCN4CCCC4=O)cc3NC(=O)c3ccc(C)o3)CC2)c1 [Compound 519] | 6.00 to 7.00 | –

Row | SMILES | pEC50 | activation at 5 µM [%]
20 | Cc1ccc(C(=O)Nc2cc(C(=O)NCCCN3CCCC3=O)ccc2N2CCN(c3cccc(C)c3C)CC2)o1 [Compound 521] | 6.00 to 7.00 | –
21 | Cc1ccc(C(=O)Nc2cc(C(=O)NCCCN3CCCC3=O)ccc2N2CCN(c3ccccc3C#N)CC2)o1 [Compound 522] | 5.00 to 6.00 | –
22 | N#Cc1ccccc1N1CCN(c2ccc(C(=O)NCCCN3CCCC3=O)cc2NC(=O)c2coc(C3CC3)n2)CC1 [Compound 525] | 6.00 to 7.00 | –
23 | COc1ccnc(N2CCN(c3ccc(C(=O)NCCCN4CCCC4=O)cc3NC(=O)c3coc(C4CC4)n3)CC2)c1 [Compound 530] | 5.00 to 6.00 | –
24 | NC(=O)c1cccnc1N1CCN(c2ccc(C(=O)NCCCN3CCCC3=O)cc2NC(=O)c2coc(C3CC3)n2)CC1 [Compound 532] | < 5.00 | –
25 | Cc1cncc(N2CCN(c3ccc(C(=O)NCCCN4CCCC4=O)cc3NC(=O)c3coc(C4CC4)n3)CC2)n1 [Compound 533] | 5.00 to 6.00 | –
26 | Cc1ccccc1N1CCN(c2ccc(C(=O)NCC[C@H]3COC(C)(C)O3)cc2NC(=O)c2coc(C3CC3)n2)CC1 [Compound 535] | 6.00 to 7.00 | –
27 | CCN(CC)Cc1cccc(CNC(=O)c2ccc(N3CCN(c4ccccc4C)CC3)c(NC(=O)c3coc(C4CC4)n3)c2)c1 [Compound 536] | 6.00 to 7.00 | –
28 | Cc1ccccc1N1CCN(c2ccc(C(=O)NCc3cccc(CN4CCCC4)c3)cc2NC(=O)c2coc(C3CC3)n2)CC1 [Compound 538] | 6.00 to 7.00 | –
29 | Cc1ccccc1N1CCN(c2ccc(C(=O)NOC[C@H](O)CO)cc2NC(=O)c2coc(C3CC3)n2)CC1 [Compound 542] | 6.00 to 7.00 | –
30 | CCN(CC)Cc1cccc(CNC(=O)c2ccc(N3CCN(c4ccccc4C)CC3)c(NC(=O)c3ccc(C)o3)c2)c1 [Compound 543] | 5.00 to 6.00 | –
31 | Cc1ccc(C(=O)Nc2cc(C(=O)NCc3cccc(CN(C)C)c3)ccc2N2CCN(c3ccccc3C)CC2)o1 [Compound 544] | 5.00 to 6.00 | –
32 | Cc1ccc(C(=O)Nc2cc(C(=O)NC(C)(C)c3cccc(CN(C)C)c3)ccc2N2CCN(c3ccccc3C)CC2)o1 [Compound 545] | 5.00 to 6.00 | –
33 | CCN(C)Cc1cccc(CNC(=O)c2ccc(N3CCN(c4ccccc4C)CC3)c(NC(=O)c3ccc(C)o3)c2)c1 [Compound 547] | 5.00 to 6.00 | –
34 | Cc1ccccc1N1CCN(c2ccc(C(=O)NCCc3cn(C)cn3)cc2N(C(=O)C(F)(F)F)C(=O)C(F)(F)F)CC1 [Compound 548] | 5.00 to 6.00 | –
35 | Cc1ccccc1N1CCN(c2ccc(C(=O)NC[C@@H]3OC(C)(C)O[C@H]3CN)cc2NC(=O)c2coc(C3CC3)n2)CC1 [Compound 549] | 6.00 to 7.00 | –
36 | Cc1ccccc1N1CCN(c2ccc(C(=O)N[C@@H]3C[C@H](CO)[C@@H](O)[C@H]3O)cc2NC(=O)c2coc(C3CC3)n2)CC1 [Compound 551] | > 7.00 | –
37 | O=C(NCCCN1CCCC1=O)c1ccc(N2CCN(c3ncncn3)CC2)c(NC(=O)c2coc(C3CC3)n2)c1 [Compound 554] | – | 40
38 | O=C(NCCCN1CCCC1=O)c1ccc(N2CCN(c3cccnc3)CC2)c(NC(=O)c2coc(C3CC3)n2)c1 [Compound 555] | 5.00 to 6.00 | –

Results, then the compound that gave them:

Row | pEC50 | activation at 5 µM [%] | SMILES
39 | 6.00 to 7.00 | – | Cc1ccccc1N1CCN(c2ccc(C(=O)N[C@@H]3CCCC[C@@H](O)[C@H]3O)cc2NC(=O)c2coc(C3CC3)n2)CC1 [Compound 479]
40 | > 7.00 | – | Cc1ccccc1N1CCN(c2ccc(C(=O)N[C@@H]3CCC[C@@H](O)[C@H]3O)cc2NC(=O)c2coc(C3CC3)n2)CC1 [Compound 480]
41 | 5.00 to 6.00 | – | Cc1ccccc1N1CCN(c2ccc(C(=O)Nc3cccc(N4CCCC4=O)c3)cc2NC(=O)c2ccco2)CC1 [Compound 482]
42 | 5.00 to 6.00 | – | Cn1ccnc1N1CCN(c2ccc(C(=O)NCCCN3CCCC3=O)cc2NC(=O)c2coc(C3CC3)n2)CC1 [Compound 483]
43 | 5.00 to 6.00 | – | Cc1ccccc1N1CCN(c2ccc(C(=O)NC(C)(C)c3cccc(CN(C)C)c3)cc2NC(=O)c2ccco2)CC1 [Compound 487]
44 | 6.00 to 7.00 | – | Cc1ccccc1N1CCN(c2ccc(C(=O)NCCCNC(=O)NC(C)(C)C)cc2NC(=O)c2ccco2)CC1 [Compound 493]
45 | 6.00 to 7.00 | – | Cc1ccccc1N1CCN(c2ccc(C(=O)NCCCNC(=O)NC(C)C)cc2NC(=O)c2ccco2)CC1 [Compound 495]
46 | 6.00 to 7.00 | – | Cc1ccccc1N1CCN(c2ccc(C(=O)NCCCNC(=O)NC3CCCCC3)cc2NC(=O)c2ccco2)CC1 [Compound 496]
47 | 5.00 to 6.00 | – | Cc1ccccc1N1CCN(c2ccc(C(=O)NCCCNC(=O)NCC3CCCCC3)cc2NC(=O)c2ccco2)CC1 [Compound 497]
48 | 6.00 to 7.00 | – | Cc1ccccc1N1CCN(c2ccc(C(=O)NCCc3ccc(CN)cc3)cc2NC(=O)c2coc(C3CC3)n2)CC1 [Compound 499]
49 | 6.00 to 7.00 | – | Cc1nc(CCCNC(=O)c2ccc(N3CCN(c4ccccc4C)CC3)c(NC(=O)c3coc(C4CC4)n3)c2)no1 [Compound 500]
50 | 6.00 to 7.00 | – | Cc1ccccc1N1CCN(c2ccc(C(=O)NCCCN3CCCC3C(N)=O)cc2NC(=O)c2ccco2)CC1 (centres unmarked) [Compound 503]
51 | 6.00 to 7.00 | – | Cc1ccccc1N1CCN(c2ccc(C(=O)NCCN(C)C3CCS(=O)(=O)C3)cc2NC(=O)c2ccco2)CC1 (centres unmarked) [Compound 504]
52 | 6.00 to 7.00 | – | CCC(C)NC(=O)NCCCNC(=O)c1ccc(N2CCN(c3ccccc3C)CC2)c(NC(=O)c2ccco2)c1 (centres unmarked) [Compound 511]
53 | > 7.00 | – | C=CCNC(=O)NCCCNC(=O)c1ccc(N2CCN(c3ccccc3C)CC2)c(NC(=O)c2ccco2)c1 [Compound 512]
54 | > 7.00 | – | Cc1ccccc1N1CCN(c2ccc(C(=O)NCCCC(=O)NCCO)cc2NC(=O)c2coc(C3CC3)n2)CC1 [Compound 515]
55 | 6.00 to 7.00 | – | O=C(NCCCN1CCCC1=O)c1ccc(N2CCN(c3ccccc3C3CC3)CC2)c(NC(=O)c2coc(C3CC3)n2)c1 [Compound 524]
56 | 6.00 to 7.00 | – | Cc1ccccc1N1CCN(c2ccc(C(=O)NCc3cccc(C(F)(F)F)c3)cc2NC(=O)c2ccco2)CC1 [Compound 527]
57 | 5.00 to 6.00 | – | Cc1ccccc1N1CCN(c2ccc(C(=O)NCc3cccc(C(F)(F)F)c3)cc2NC(=O)c2coc(C3CC3)n2)CC1 [Compound 528]
58 | 6.00 to 7.00 | – | CCN(C)Cc1cccc(CNC(=O)c2ccc(N3CCN(c4ccccc4C)CC3)c(NC(=O)c3coc(C4CC4)n3)c2)c1 [Compound 537]
59 | 5.00 to 6.00 | – | Cc1ccccc1C1(O)CCN(c2ccc(C(=O)NCCCN3CCCC3=O)cc2NC(=O)c2coc(C3CC3)n2)CC1 [Compound 539]
60 | 5.00 to 6.00 | – | Cc1ccccc1N1CCN(c2ccc(C(=O)NCCCN3CCCC3=O)cc2NC(=O)C2CC2(F)F)CC1 (centres unmarked) [Compound 540]
61 | 5.00 to 6.00 | – | Cc1ccc(C(=O)Nc2cc(C(=O)NCc3cccc(CN4CCCC4)c3)ccc2N2CCN(c3ccccc3C)CC2)o1 [Compound 546]
62 | > 7.00 | – | Cc1ccccc1N1CCN(c2ccc(C(=O)NC3CCCC(O)C3)cc2NC(=O)c2coc(C3CC3)n2)CC1 (centres unmarked) [Compound 552]
63 | 6.00 to 7.00 | – | O=C(NCCCN1CCCC1=O)c1ccc(N2CCN(c3cccc4[nH]ccc34)CC2)c(NC(=O)c2coc(C3CC3)n2)c1 [Compound 553]
64 | 5.00 to 6.00 | – | Cc1ccccc1N1CCN(c2ccc(C(=O)NC[C@H](O)[C@@H](O)CN)cc2NC(=O)c2coc(C3CC3)n2)CC1 [Compound 561]
65 | 6.00 to 7.00 | – | COC(C(=O)Nc1cc(C(=O)NCCCN2CCCC2=O)ccc1N1CCN(c2ccccc2C)CC1)c1ccccc1 (centres unmarked) [Compound 562]
